Test [1] concerns the target T1, recombinant human Lp-PLA2 (Homo sapiens, UniProt Q13093).
T1 sequence (Q13093 22-441): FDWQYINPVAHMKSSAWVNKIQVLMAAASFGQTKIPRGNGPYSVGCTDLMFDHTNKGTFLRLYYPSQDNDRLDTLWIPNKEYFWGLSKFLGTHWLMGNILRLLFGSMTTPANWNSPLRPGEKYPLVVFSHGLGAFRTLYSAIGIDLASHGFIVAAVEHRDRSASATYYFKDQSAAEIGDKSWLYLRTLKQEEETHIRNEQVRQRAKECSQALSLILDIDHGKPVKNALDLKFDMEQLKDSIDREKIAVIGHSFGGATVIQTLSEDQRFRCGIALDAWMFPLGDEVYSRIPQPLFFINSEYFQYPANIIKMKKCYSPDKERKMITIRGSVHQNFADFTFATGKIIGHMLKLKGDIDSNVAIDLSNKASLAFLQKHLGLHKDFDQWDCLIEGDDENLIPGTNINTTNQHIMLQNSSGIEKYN
As to the kind of experiment: Recombinant human Lp-PLA2 assay (rhLp-PLA2, PED6 assay). It is filed as biochemical. The source says:
(1) Recombinant Human Lp-PLA2 Assay (rhLp-PLA2) (Also Referred to as “PED6” Assay)
N-((6-(2,4-dinitrophenyl)amino)-hexanoyl)-2-(4,4-difluoro-5,7-dimethyl-4-bora-3a,4a-diaza-s-indacene-3-pentanoyl)-1-hexadecanoyl-sn-glycero-3-phosphoethanolamine, triethylammonium salt (PED6) is a commercially available fluorescently-labelled phospholipid, which is commercially available from Molecular Probes. There is a quenching […] position and a Bodipy fluorescein (FL) group in the sn2 position.
The PED6 assay was run as an unquenched 10 μL assay. Compounds source plate was prepared by making 1:3 (by volume) serial dilution of the compounds into pure DMSO on 384-well microplate. […] 5 μL of recombinant human Lp-PLA2 enzyme (2 nM rhLp-PLA2 in assay buffer of 50 mM HEPES, pH7.4, 150 mM NaCl, 1 mM CHAPS) was added to each well of the plate with compounds. Plates were centrifuged for 10 sec at 500 rpm. […] Plates were centrifuged for 10 sec at 500 rpm. Plate was covered to protect from light and incubated for 20 min at room temperature. […] PIC50 data, curve and QC analysis was conducted by using XL fit module in Excel.

The target in test [2] is T2, Lp-PLA2 from plasma (pooled human plasma) (Homo sapiens, UniProt Q13093).
T2 construct: 8 μL pooled human plasma; from tissue; host or cells: pooled human plasma
T2 sequence (Q13093 22-441): T1 sequence (Q13093 22-441)
Description: Lp-PLA2 human plasma assay (Thio-PAF assay). It is filed as biochemical. The settings on record: text thresholds, read-out: pIC50 values in the thio-PAF assay (converted). From the text: (3) Lipoprotein-Associated Phospholipase A2 (Lp-PLA2) Human Plasma Assay (Also Referred to as “Thio-PAF Assay”)
The human plasma assay utilizes a thioester analog of PAF (phosphatidylcholine), where hydrolysis yields to the formation of a phospholipid containing a free thiol group. The amount of thiol is quantitated continuously by reacting with CPM (7-diethylamino-3-(4′-maleimidylphenyl)-4-methylcoumarin), a maleimide which increases in fluoresence after Michael addition of thiols. This assay may detect the activity of Lp-PLA2 from plasma, as determined by specific inhibition by Lp-PLA2 inhibitors.
The thio-PAF assay was run as a quenched 15 μL assay. Compounds source plate was prepared by making 1:3 (by volume) serial dilution of the compounds into pure DMSO on 384-well microplate. 0.01 μL of compounds on compound source plate were transferred to 384 well Greiner 784076 (black) low-volume plates by ECHO liquid dispenser. 8 μL pooled human plasma, which was previously aliquoted and frozen, was added. Plates were centrifuged for 10 sec at 500 rpm. After 30 minutes preincubation, 2 μL of substrate (2.5 mM thio-PAF, 3.2 mM NEM (N-ethylmaleimide) [made fresh daily in DMSO], and 32 μM CPM [from a DMSO stock] in assay buffer of 50 mM HEPES, pH7.4, 150 mM NaCl, 1 mM CHAPS was added to 384 well Greiner 784076 (black) low-volume plates by BRAVO liquid handling station. Plates were centrifuged for 10 sec at 500 rpm. Plate was covered to protect from light and incubated for 2 min at room temperature. Reaction was quenched with 5 μL of 5% aqueous trifluoroacetic acid (TFA). Plates were covered to protect from light and incubated for 40 min at room temperature. Plates were read at ex: 380/em: 485 using-Envision microplate reader. PIC50 data, curve and QC analysis was conducted by using XLFit module in Excel.

Setting [3] is: text thresholds, upper limit for pIC50 in this assay is 9.3, read-out: pIC50 values in the PED6 assay (converted).
Where [4] appears, read: upper limit for pIC50 obtained in this PED6 assay is 9.3, read-out: rhLp-PLA2 (PED6 assay) (pIC50) (converted).

Counter-ions that a name gives are not always drawn. Like-named read-outs stand apart in the source and are kept apart here.

As for `O=c1nc(NCCc2ccc(Oc3ccc(F)cc3)cc2)[nH]cc1Cc1cncnc1` [E188, 2-{2-[4-(4-Fluoro-phenoxy)-phenyl]-ethylamino}-5-pyrimidin-5-ylmethyl-1H-pyrimidin-4-one], the IC50 is no more than 10 nM in test [1] (setting [3]) and no more than 100 nM in test [2]. With `COc1ncc(Cc2c[nH]c(OCCc3ccc(Oc4ccc(Cl)c(C(F)(F)F)c4)c(F)c3)nc2=O)cn1` [E172, 2-{[2-(4-{[4-chloro-3-(trifluoromethyl)phenyl]oxy}-3-fluorophenyl)ethyl]oxy}-5-{[2-(methyloxy)-5-pyrimidinyl]methyl}-4(1H)-pyrimidinone], the IC50 in test [1] (setting [3]) was no more than 1 nM; in test [2], no more than 100 nM. With `COc1ncc(Cc2c[nH]c(SCc3ccc(Oc4ccc(Cl)c(C(F)(F)F)c4)c(C#N)c3)nc2=O)cn1` [E84, 2-{[4-chloro-3-(trifluoromethyl)phenyl]oxy}-5-{[(5-{[2-(methyloxy)-5-pyrimidinyl]methyl}-4-oxo-1,4-dihydro-2-pyrimidinyl)thio]methyl}benzonitrile], the IC50 was no more than 1 nM in test [1] (setting [3]) and no more than 1000 nM in test [2]. In the case of `COc1ncc(Cc2cn(C)c(SCc3ccc(Oc4ccc(Cl)c(C(F)(F)F)c4)c(C#N)c3)nc2=O)cn1` [E85, 2-{[4-chloro-3-(trifluoromethyl)phenyl]oxy}-5-{[(1-methyl-5-{[2-(methyloxy)-5-pyrimidinyl]methyl}-4-oxo-1,4-dihydro-2-pyrimidinyl)thio]methyl}benzonitrile], the IC50 in test [1] (setting [3]) was no more than 1 nM; in test [2] it was no more than 100 nM. With `Cc1ncc(Cc2c[nH]c(NCCc3ccc(Oc4ccc(Cl)c(C(F)(F)F)c4)cc3)nc2=O)cn1` [E195, 2-{2-[4-(4-Chloro-3-trifluoromethyl-phenoxy)-phenyl]-ethylamino}-5-(2-methyl-pyrimidin-5-ylmethyl)-1H-pyrimidin-4-one], the IC50 in test [1] (setting [3]) was no more than 10 nM; in test [2], no more than 100 nM. In the case of `Cc1nnc(Cc2c[nH]c(OCCc3ccc(Oc4ccc(Cl)c(C(F)(F)F)c4)cc3)nc2=O)o1` [E134, 2-{[2-(4-{[4-chloro-3-(trifluoromethyl)phenyl]oxy}phenyl)ethyl]oxy}-5-[(5-methyl-1,3,4-oxadiazol-2-yl)methyl]-4(1H)-pyrimidinone], the IC50 in test [1] (setting [3]) was no more than 10 nM; in test [1] (setting [4]), 2.51 nM; in test [2], no more than 100 nM.

For `Cn1cc(Cc2cn(C)c(SCc3ccc(Oc4cccc(C(F)(F)F)c4)c(C#N)c3)nc2=O)cn1` [E95, 5-(((1-methyl-5-((1-methyl-1H-pyrazol-4-yl)methyl)-4-oxo-1,4-dihydropyrimidin-2-yl)thio)methyl)-2-(3-(trifluoromethyl)phenoxy)benzonitrile, trifluoroacetic acid salt], the IC50 in test [1] (setting [3]) was no more than 1 nM; in test [2] it was no more than 100 nM.

Consider `N#Cc1cc(CCNc2nc(=O)c(Cc3cncnc3)c[nH]2)ccc1Oc1ccc(C(F)(F)F)cn1` [E205, 5-[2-(4-oxo-5-pyrimidin-5-ylmethyl-1,4-dihydro-pyrimidin-2-ylamino)-ethyl]-2-(5-trifluoromethyl-pyridin-2-yloxy)benzonitrile], for which the IC50 was no more than 10 nM in test [1] (setting [3]) and no more than 1000 nM in test [2].

Turning to `COc1ncc(Cc2c[nH]c(NCCc3ccc(Oc4ccc(C(F)(F)F)c(Cl)c4)cc3)nc2=O)cn1` [E206, 2-{2-[4-(3-chloro-4-trifluoromethyl-phenoxy)-phenyl]ethylamino}-5-(2-methoxy-pyrimidin-5-ylmethyl)-1H-pyrimidin-4-one], the IC50 in test [1] (setting [3]) was no more than 10 nM; in test [2] it was no more than 1000 nM.

In the case of `COc1ncc(Cc2cn(C)c(SCc3ccc(Oc4ccc(F)c(C(F)(F)F)c4)c(C#N)c3)nc2=O)cn1` [E90, 2-{[4-fluoro-3-(trifluoromethyl)phenyl]oxy}-5-{[(1-methyl-5-{[2-(methyloxy)-5-pyrimidinyl]methyl}-4-oxo-1,4-dihydro-2-pyrimidinyl)thio]methyl}benzonitrile], the IC50 in test [1] (setting [3]) is no more than 1 nM; in test [2], no more than 100 nM.

As to `O=c1cc(Cc2c[nH]c(NCCc3ccc(Oc4ccc(Cl)c(C(F)(F)F)c4)cc3)nc2=O)cc[nH]1` [E216, 2-{2-[4-(4-Chloro-3-trifluoromethyl-phenoxy)-phenyl]-ethylamino}-5-(2-oxo-1,2-dihydro-pyridin-4-ylmethyl)-1H-pyrimidin-4-one], the IC50 in test [1] (setting [3]) is no more than 10 nM; in test [1] (setting [4]), 3.16 nM; in test [2] it was no more than 1000 nM. On to `CCc1cn(CC)c(OCCc2ccc(Oc3ccc(Cl)c(C(F)(F)F)c3)cc2)nc1=O` [E130, 2-{[2-(4-{[4-chloro-3-(trifluoromethyl)phenyl]oxy}phenyl)ethyl]oxy}-1,5-diethyl-4(1H)-pyrimidinone], for which the IC50 was 2.51 nM in test [1] (setting [4]) and no more than 1000 nM in test [2]. For the compound `COc1ncc(Cc2c[nH]c(OCCc3ccc(Oc4ccc(Cl)c(C(F)(F)F)n4)cc3)nc2=O)cn1` [E161, 2-(4-((5-chloro-6-(trifluoromethyl)pyridin-2-yl)oxy)phenethoxy)-5-((2-methoxypyrimidin-5-yl)methyl)pyrimidin-4(1H)-one], the IC50 in test [1] (setting [3]) was no more than 10 nM; in test [2], no more than 1000 nM.

Take `Cc1noc(Cc2c[nH]c(OCCc3ccc(Oc4ccc(Cl)c(C(F)(F)F)c4)cc3)nc2=O)n1` [E133, 2-{[2-(4-{[4-chloro-3-(trifluoromethyl)phenyl]oxy}phenyl)ethyl]oxy}-5-[(3-methyl-1,2,4-oxadiazol-5-yl)methyl]-4(1H)-pyrimidinone]: the results for the IC50 in test [1] (setting [3]), in test [1] (setting [4]) and in test [2] were no more than 10 nM, 3.16 nM and no more than 1000 nM, respectively. Turning to `COc1ncc(Cc2cn(C)c(SCc3ccc(Oc4ccc(Cl)c(C(F)(F)F)c4)cc3)nc2=O)cn1` [E75, 2-{[(4-{[4-chloro-3-(trifluoromethyl)phenyl]oxy}phenyl)methyl]thio}-1-methyl-5-{[2-(methyloxy)-5-pyrimidinyl]methyl}-4(1H)-pyrimidinone], the IC50 in test [1] (setting [3]) is no more than 1 nM; in test [2], no more than 100 nM. For the compound `Cc1ncc(Cc2c[nH]c(NCCc3ccc(Oc4ccc(C(F)(F)F)cn4)c(C#N)c3)nc2=O)cn1` [E203, 5-{2-[5-(2-Methyl-pyrimidin-5-ylmethyl)-4-oxo-1,4-dihydro-pyrimidin-2-ylamino]-ethyl}-2-(5-trifluoromethyl-pyridin-2-yloxy)-benzonitrile], the IC50 in test [2] was no more than 100 nM. Same read-out and setting: the result for `COc1ncc(Cc2c[nH]c(OCCc3ccc(Oc4cnc(C(F)(F)F)nc4)c(F)c3)nc2=O)cn1` [E167, 2-(3-fluoro-4-((2-(trifluoromethyl)pyrimidin-5-yl)oxy)phenethoxy)-5-((2-methoxypyrimidin-5-yl)methyl)pyrimidin-4(1H)-one] reads no more than 100 nM; that for `Cn1cc(Cc2cncnc2)c(=O)nc1SCc1ccc(Oc2ccc(Cl)c(C(F)(F)F)c2)c(C#N)c1` [E79, 2-{[4-chloro-3-(trifluoromethyl)phenyl]oxy}-5-({[1-methyl-4-oxo-5-(5-pyrimidinylmethyl)-1,4-dihydro-2-pyrimidinyl]thio}methyl)benzonitrile], no more than 100 nM. With `CCc1cn(C)c(OCCc2ccc(Oc3ccc(Cl)c(C(F)(F)F)c3)c(F)c2)nc1=O` [E174, 2-{[2-(4-{[4-chloro-3-(trifluoromethyl)phenyl]oxy}-3-fluorophenyl)ethyl]oxy}-5-ethyl-1-methyl-4(1H)-pyrimidinone], the IC50 in test [2] is no more than 100 nM.
